Data reported in paper PMC9319837, “Microscale Thermophoresis and Molecular Modelling to Explore the Chelating Drug Transportation in the Milk to Infant” (Molecules, 2022).

Target: T1, human Lf (lactoferrin) (Homo sapiens, UniProt P02788)
T1 construct: gene LTF; full-length, label-free
Assay: label-free microscale thermophoresis (intrinsic fluorescence, […] nm)
Format: binding
Settings: 0.1 M Tris pH 7.4; Lf 120 nM; CP20 7 nM to 250 μM; 10 min equilibration; iron saturation of Lf not stated

T1 sequence (P02788 20-710): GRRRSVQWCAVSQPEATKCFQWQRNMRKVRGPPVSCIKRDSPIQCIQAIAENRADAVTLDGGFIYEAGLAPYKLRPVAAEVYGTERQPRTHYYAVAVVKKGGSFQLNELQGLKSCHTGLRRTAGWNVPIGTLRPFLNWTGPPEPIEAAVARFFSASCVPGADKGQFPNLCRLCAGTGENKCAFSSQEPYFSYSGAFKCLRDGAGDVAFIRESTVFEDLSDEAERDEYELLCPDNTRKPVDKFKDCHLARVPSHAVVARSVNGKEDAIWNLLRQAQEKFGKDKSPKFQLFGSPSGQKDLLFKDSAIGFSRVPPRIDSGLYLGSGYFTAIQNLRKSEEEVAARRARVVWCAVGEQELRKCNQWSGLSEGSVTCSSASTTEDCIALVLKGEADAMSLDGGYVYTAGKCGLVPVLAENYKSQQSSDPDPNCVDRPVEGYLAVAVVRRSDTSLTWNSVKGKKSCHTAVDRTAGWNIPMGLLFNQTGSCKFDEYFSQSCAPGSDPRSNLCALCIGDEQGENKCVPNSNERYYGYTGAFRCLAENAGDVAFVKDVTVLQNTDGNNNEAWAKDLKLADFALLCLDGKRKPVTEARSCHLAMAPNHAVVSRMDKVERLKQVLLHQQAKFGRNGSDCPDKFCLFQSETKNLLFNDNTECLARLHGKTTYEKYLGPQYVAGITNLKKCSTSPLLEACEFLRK

- Kd: 8.9 × 10^−6 ± 1.6 Molar
SMILES: Cc1c(O)c(=O)ccn1C [deferiprone, 1,2-dimethyl-3-hydroxypyrid-4-one]
